Source: US8143307B2, “Benzothiophen-2-carbonylguanidine derivatives, preparation thereof, and pharmaceutical composition containing the same” (Korea Research Institute of Chemical Technology, priority 2004, dated 2012)
pIC50: −log10 of the molar value.

What was measured:
Human NHE-1 = molecular target: T1, Human NHE-1 (Homo sapiens, UniProt P19634); experiment: Inhibitory effect on NHE-1 in PS120/NHE-1 cells (recovery from intracellular acidosis, BCECF fluorescence); assay type: cell-based; conditions: human NHE-1 expressed PS120 cells; concentration at which recovery from intracellular acidosis was 50% inhibited
T1 construct: expressed in transfected cells; host or cells: CCL39-derived PS120 cells (PS120/NHE-1)
T1 sequence (P19634 whole entry): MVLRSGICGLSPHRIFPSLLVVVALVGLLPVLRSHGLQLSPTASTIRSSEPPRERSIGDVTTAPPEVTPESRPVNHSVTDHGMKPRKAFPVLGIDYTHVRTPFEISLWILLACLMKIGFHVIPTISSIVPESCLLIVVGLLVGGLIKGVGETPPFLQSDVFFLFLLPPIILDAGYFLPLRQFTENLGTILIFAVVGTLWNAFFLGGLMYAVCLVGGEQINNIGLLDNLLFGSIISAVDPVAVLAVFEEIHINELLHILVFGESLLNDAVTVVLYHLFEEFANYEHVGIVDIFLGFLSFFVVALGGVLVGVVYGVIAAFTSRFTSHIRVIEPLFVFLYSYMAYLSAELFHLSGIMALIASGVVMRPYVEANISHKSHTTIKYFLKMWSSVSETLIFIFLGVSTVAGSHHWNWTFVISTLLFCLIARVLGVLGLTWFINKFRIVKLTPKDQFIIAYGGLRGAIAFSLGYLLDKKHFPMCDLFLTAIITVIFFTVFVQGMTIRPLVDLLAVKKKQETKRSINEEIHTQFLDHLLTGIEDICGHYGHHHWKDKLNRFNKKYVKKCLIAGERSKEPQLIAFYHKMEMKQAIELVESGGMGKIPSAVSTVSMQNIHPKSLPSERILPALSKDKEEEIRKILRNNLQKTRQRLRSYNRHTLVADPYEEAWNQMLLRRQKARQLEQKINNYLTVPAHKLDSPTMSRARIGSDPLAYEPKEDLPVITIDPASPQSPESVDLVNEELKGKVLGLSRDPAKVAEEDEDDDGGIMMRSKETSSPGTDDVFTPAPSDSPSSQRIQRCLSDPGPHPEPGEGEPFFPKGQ

cortical neurons = experiment: Neuroprotective effect against glutamate-induced neurotoxicity; assay type: cell-based, rat; conditions: for TUNEL-Positive Cells (apoptosis): 12 hours after glutamate treatment; for Free LDH Levels (necrosis): 20 hours after glutamate treatment
Description: Cortical neurons were isolated from the brain of 14-day-old fetal rats and cultured in Eagle's MEM (Minimum essential medium) at 37° C. in a 5% CO2 atmosphere. On day 3 or 4 of culturing, 10 μM cytosine-β-arabinofuranoside (AraC) was added to the culture medium to prevent the overgrowth of glial cells. […] On day 7˜9 of culturing, the cells were induced to cellular toxicity by treatment with 100 μM glutamate in combination with the compounds of interest or vehicle alone as a negative control. Necrosis was determined by released LDH (Lactate dehydrogenase) levels at 20 hours after glutamate treatment. For the analysis of apoptosis, the count of TUNEL (Terminal deoxynucleotidyl transferase UTP nick end labeling)-positive cells was measured at 12 hours after glutamate treatment.

[1] = tested on: in vivo ischemic rat brain model; experiment: Cerebroprotective effect on in vivo ischemic rat brain model; conditions: for % Infarct size/hemisphere / TUNEL-Positive Cells (% Right/Left Hemisphere): 60 min ischemia, 24 hours reperfusion
Description: In order to examine whether the benzothiophen-2-carbonylguanidine derivatives of the present invention protect the brain from ischemia-reperfusion-induced cerebral injury, the following experiment was conducted.
Male Sparague-Dawley Rats (350±50 g, Samyook Experimental Animal Lab) were anesthetized and intraperitoneally injected with heparine. After ischemia by the occlusion of the right carotid artery for 60 min, reperfusion was performed for 24 hours. Compounds or a vehicle was intravenously injected at 20 min before the occlusion.
After the perfusion for 24 hours, rats were anesthetized with a fatal dose of sodium pentobarbital. The brains were carefully isolated and transected at intervals of 2 mm. The coronary slices thus obtained were stained at 37° C. for 20 min using a 2% 2,3,5-triphenyltetrazolium chloride solution. Stained slices were analyzed for % necrosis area relative to total brain area using an image analyzer (BAS image 1500). Also, the cerebroprotective activity of the compounds against brain edema was expressed as % volume of the left hemisphere relative to that of the ischemic right hemisphere.

[2] = 0.1 mg/kg intravenous 20 min before occlusion
[3] = 0.3 mg/kg intravenous 20 min before occlusion

Q: How did the pIC50 (Human NHE-1) turn out when CS(=O)(=O)O.N#Cc1cccc2sc(C(=O)N=C(N)N)cc12 [Example 42, (4-Cyanobenzothiophene-2-Carbonyl)Guanidine Methanesulfonate] was run?
A: 5.69

Q: And the “TUNEL-Positive Cells (apoptosis)” value (cortical neurons; 0.1 μM with 100 μM glutamate)?
A: 28.6

Q: What about the “Free LDH Levels (necrosis)” value (cortical neurons; 0.1 μM with 100 μM glutamate) of the same molecule?
A: 58.6

Q: And the “TUNEL-Positive Cells (apoptosis)” value (cortical neurons; 1.0 μM with 100 μM glutamate)?
A: 23.9

Q: And the “Free LDH Levels (necrosis)” value (cortical neurons; 1.0 μM with 100 μM glutamate)?
A: 43.2

Q: And the “TUNEL-Positive Cells (apoptosis)” value (cortical neurons; 10 μM with 100 μM glutamate)?
A: 18.8

Q: What about the “Free LDH Levels (necrosis)” value (cortical neurons; 10 μM with 100 μM glutamate) of the same molecule?
A: 38.8

Q: And the “TUNEL-Positive Cells (apoptosis)” value (cortical neurons; 100 μM with 100 μM glutamate)?
A: 12.6

Q: What about the “Free LDH Levels (necrosis)” value (cortical neurons; 100 μM with 100 μM glutamate) of the same molecule?
A: 32.3

Q: And the “necrosis and apoptosis of neurons (glutamate-induced neurotoxicity)” value (cortical neurons; 0.1-100 μM with 100 μM glutamate)?
A: inhibited the necrosis and apoptosis of neurons in dose-dependent manners

Q: What about the “% Infarct size/hemisphere” value [1, 2] of the same molecule?
A: 21.4%

Q: And the “TUNEL-Positive Cells (% Right/Left Hemisphere)” value [1, 2]?
A: 111.2%

Q: And the “% Infarct size/hemisphere” value [1, 3]?
A: 18.6%

Q: What about the “TUNEL-Positive Cells (% Right/Left Hemisphere)” value [1, 3] of the same molecule?
A: 107.96%

Q: And the “ischemia/reperfusion-induced brain infarction and brain edema” value ([1]; injection doses of both 0.1 mg/kg and 0.3 mg/kg)?
A: significantly reduced
